In brackets after ≈: the same amount, converted by molar mass. Blank lines part the entries; values can stand above or below the molecule they belong to.
Experiments:
[1] = molecular target: Lysophosphatidic acid receptor 1 (Mus musculus, UniProt P61793); test: Antagonist activity at mouse LPA1 transfected in human HeLa cells incubated for 30 mins by FLIPR-based calcium mobilization assay; format: cell-based
[2] = Tlast in female C57BL/6J mouse plasma at 30 mg/kg, po measured after 24 hrs by UPLC-MS/MS analysis; format: ADME, organism-based; conditions: in vivo
[3] = Unbound Cmax in female C57BL/6J mouse plasma at 30 mg/kg, po measured after 24 hrs by UPLC-MS/MS analysis; format: ADME, organism-based; conditions: in vivo
[4] = Unbound Cmax in female C57BL/6J mouse lung at 30 mg/kg, po measured after 24 hrs by UPLC-MS/MS analysis; format: ADME, organism-based; conditions: in vivo
[5] = Metabolic stability in human liver microsomes assessed as intrinsic clearance measured per mg of protein at 0.5 uM measured upto 45 mins in presence of NADPH regenerating system by HPLC-MS/MS analysis; format: ADME, Microsome; conditions: read-out: CLH
[6] = Half life in female C57BL/6J mouse at 2 mg/kg, iv measured after 24 hrs by UPLC-MS/MS analysis; format: ADME, organism-based; conditions: in vivo
[7] = Total Cmax in female C57BL/6J mouse lung at 30 mg/kg, po measured after 24 hrs by UPLC-MS/MS analysis; format: ADME, organism-based
[8] = Volume of distribution at steady state in female C57BL/6J mouse at 2 mg/kg, iv measured after 24 hrs by UPLC-MS/MS analysis; format: ADME, organism-based; conditions: in vivo, read-out: Vdss
[9] = Aqueous solubility of the compound at pH 7.4; format: physicochemical; conditions: buffer
[10] = Unbound AUClast in female C57BL/6J mouse plasma at 30 mg/kg, po measured after 24 hrs by UPLC-MS/MS analysis; format: ADME, organism-based; conditions: in vivo
[11] = Oral bioavailability in female C57BL/6J mouse at 2 mg/kg, iv measured after 24 hrs by UPLC-MS/MS analysis; format: ADME, organism-based; conditions: in vivo
[12] = molecular target: T1, Bile salt export pump (Homo sapiens, UniProt O95342); test: Inhibition of BSEP in cryopreserved sandwich-cultured human hepatocytes by measuring reduction in TCA biliary clearance using taurocholic acid as substrate; format: cell-based, Hepatocyte
T1 sequence (O95342 whole entry): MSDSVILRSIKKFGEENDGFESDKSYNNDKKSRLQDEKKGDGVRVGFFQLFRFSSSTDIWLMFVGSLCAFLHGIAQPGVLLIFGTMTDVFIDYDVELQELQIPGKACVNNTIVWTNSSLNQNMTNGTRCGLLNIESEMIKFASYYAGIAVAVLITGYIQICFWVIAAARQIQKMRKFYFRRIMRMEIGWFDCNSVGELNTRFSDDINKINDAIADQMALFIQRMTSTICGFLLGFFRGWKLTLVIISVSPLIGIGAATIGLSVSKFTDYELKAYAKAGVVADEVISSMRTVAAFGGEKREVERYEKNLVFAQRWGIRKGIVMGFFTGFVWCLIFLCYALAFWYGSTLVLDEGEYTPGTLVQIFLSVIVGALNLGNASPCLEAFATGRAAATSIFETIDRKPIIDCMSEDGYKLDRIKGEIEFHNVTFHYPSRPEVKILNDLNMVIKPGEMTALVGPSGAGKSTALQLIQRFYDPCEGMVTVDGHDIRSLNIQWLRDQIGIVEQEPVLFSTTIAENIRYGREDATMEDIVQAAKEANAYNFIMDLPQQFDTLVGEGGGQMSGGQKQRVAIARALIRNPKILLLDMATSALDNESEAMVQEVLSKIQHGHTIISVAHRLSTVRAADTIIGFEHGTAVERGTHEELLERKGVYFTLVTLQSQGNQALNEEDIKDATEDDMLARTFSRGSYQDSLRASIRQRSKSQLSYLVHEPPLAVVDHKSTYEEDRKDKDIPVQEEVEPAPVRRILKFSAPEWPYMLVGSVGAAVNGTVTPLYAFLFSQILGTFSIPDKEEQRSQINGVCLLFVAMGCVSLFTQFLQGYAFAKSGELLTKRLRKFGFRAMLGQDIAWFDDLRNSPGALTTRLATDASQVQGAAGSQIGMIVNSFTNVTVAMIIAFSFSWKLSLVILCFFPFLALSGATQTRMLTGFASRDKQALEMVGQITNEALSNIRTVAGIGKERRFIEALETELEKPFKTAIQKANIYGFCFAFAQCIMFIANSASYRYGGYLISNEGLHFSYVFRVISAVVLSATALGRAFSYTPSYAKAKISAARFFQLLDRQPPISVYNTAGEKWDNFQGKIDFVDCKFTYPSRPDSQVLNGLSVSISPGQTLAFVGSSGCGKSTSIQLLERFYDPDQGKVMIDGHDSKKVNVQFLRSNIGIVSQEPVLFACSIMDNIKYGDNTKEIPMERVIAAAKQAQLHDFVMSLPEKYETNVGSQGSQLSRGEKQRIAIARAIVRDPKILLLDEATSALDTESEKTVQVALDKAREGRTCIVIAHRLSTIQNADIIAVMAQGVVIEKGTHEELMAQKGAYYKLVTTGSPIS

[13] = molecular target: BSEP (Homo sapiens, UniProt O95342); test: (§1) Inhibition of BSEP in cryopreserved sandwich-cultured human hepatocytes by measuring reduction in TCA biliary clearance using taurocholic acid as substrate at 50 uM relative to control; format: cell-based, Hepatocyte; conditions: cryopreserved sandwich-cultured hepatocytes, probe taurocholic acid
BSEP, sequence (O95342 whole entry): as above

[14] = Clearance in female C57BL/6J mouse at 2 mg/kg, iv measured after 24 hrs by UPLC-MS/MS analysis; format: ADME, organism-based; conditions: in vivo
[15] = Total AUClast in female C57BL/6J mouse lung at 30 mg/kg, po measured after 24 hrs by UPLC-MS/MS analysis; format: ADME, organism-based; conditions: in vivo
[16] = Lipophilicity, logD of compound at pH 7.4 by chromatographic hydrophobicity index method; format: physicochemical; conditions: buffer
[17] = Total Cmax in female C57BL/6J mouse plasma at 30 mg/kg, po measured after 24 hrs by UPLC-MS/MS analysis; format: ADME, organism-based
[18] = Unbound AUClast in female C57BL/6J mouse lung at 30 mg/kg, po measured after 24 hrs by UPLC-MS/MS analysis; format: ADME, organism-based; conditions: in vivo
[19] = Metabolic stability in female C57BL/6J mouse liver microsomes assessed as intrinsic clearance measured per mg of protein at 0.5 uM measured upto 45 mins in presence of NADPH regenerating system by HPLC-MS/MS analysis; format: ADME, Microsome; conditions: read-out: CLH
[20] = Total AUClast in female C57BL/6J mouse plasma at 30 mg/kg, po measured after 24 hrs by UPLC-MS/MS analysis; format: ADME, organism-based; conditions: in vivo
[21] = Tlast in female C57BL/6J mouse lung at 30 mg/kg, po measured after 24 hrs by UPLC-MS/MS analysis; format: ADME, organism-based; conditions: in vivo
[22] = test system: Mus musculus; test: Inhibition of LPA-stimulated histamine release in male CD1 mouse plasma assessed as effective dose administered as po dose pretreated for 30 mins followed by LPA addition measured after 2 mins by enzyme immunoassay; format: functional; conditions: 32 min
[23] = molecular target: T1, Bile salt export pump; test: as §1; format: cell-based, Hepatocyte; conditions: hepatocytes, 50 µM
[24] = Drug uptake in mouse lung at 30 mg/kg, po measured upto 24 hrs; format: ADME, organism-based; conditions: in vivo

Lysophosphatidic acid receptor 1, sequence (P61793 whole entry): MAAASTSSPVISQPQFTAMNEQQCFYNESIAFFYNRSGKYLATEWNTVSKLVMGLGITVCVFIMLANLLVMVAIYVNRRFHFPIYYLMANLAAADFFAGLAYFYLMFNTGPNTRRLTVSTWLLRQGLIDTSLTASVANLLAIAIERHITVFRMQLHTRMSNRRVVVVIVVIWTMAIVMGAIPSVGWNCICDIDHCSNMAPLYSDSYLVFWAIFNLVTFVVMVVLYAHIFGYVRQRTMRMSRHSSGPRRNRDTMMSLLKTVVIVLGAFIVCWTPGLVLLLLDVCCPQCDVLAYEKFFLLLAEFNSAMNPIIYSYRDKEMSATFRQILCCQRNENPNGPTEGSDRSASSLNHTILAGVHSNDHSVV

Compound: Cc1nc(-c2cnn(C)c2NC(=O)O[C@H](C)c2ccccc2Cl)ccc1NC(=O)[C@H]1CCCC[C@@H]1C(=O)O
- IC50 [1]: 25.1 nM
- Tlast [2]: 8 h
- fCmax [3]: 1758 ng/mL
- fCmax [4]: 498 ng/mL
- microsomal CLint at 0.5 µM [5]: 7 µL/min/mg
- half-life [6]: 2.48 h
- Cmax [7]: 7950 ng/mL
- Vd [8]: 0.35 L/kg
- solubility [9]: 295 µM (≈ 159 µg/mL)
- fAUClast [10]: 2621 h/ng/mL
- bioavailability [11]: 49%
- IC50 [12]: > 100000 nM
- inhibition at 50 µM [13]: 28%
- clearance [14]: 2.99 mL/min/kg
- AUClast [15]: 17100 h/ng/mL
- chromatographic logD [16]: 1.12
- Cmax [17]: 54200 ng/mL
- fAUClast [18]: 1071 h/ng/mL
- microsomal CLint at 0.5 µM [19]: < 2 µL/min/mg
- AUClast [20]: 80800 h/ng/mL
- Tlast [21]: 8 h

Compound: Cc1noc(-c2ccc(NC(=O)[C@H]3CCCC[C@@H]3C(=O)O)cn2)c1NC(=O)O[C@H](C)c1ccccc1Cl
- IC50 [1]: 31.6 nM
- Tlast [2]: 24 h
- fCmax [3]: 749 ng/mL
- fCmax [4]: 139 ng/mL
- microsomal CLint at 0.5 µM [5]: 6.3 µL/min/mg
- half-life [6]: 0.69 h
- Cmax [7]: 4230 ng/mL
- Vd [8]: 0.24 L/kg
- solubility [9]: 458 µM (≈ 242 µg/mL)
- fAUClast [10]: 1249 h/ng/mL
- bioavailability [11]: 66%
- IC50 [12]: 50100 nM
- ED50 [22]: 0.1 mg/kg
- inhibition at 50 µM [13]: 50%
- clearance [14]: 6.96 mL/min/kg
- AUClast [15]: 8000 h/ng/mL
- chromatographic logD [16]: 1.52
- Cmax [17]: 26500 ng/mL
- fAUClast [18]: 262 h/ng/mL
- microsomal CLint at 0.5 µM [19]: 4 µL/min/mg
- AUClast [20]: 44200 h/ng/mL
- Tlast [21]: 8 h

Compound: Cc1nc(-c2onc(C)c2Nc2cncc(C3CC3)n2)ccc1NC(=O)[C@H]1CCCC[C@@H]1C(=O)O
- inhibition (INH) [23]: Not_active

Compound: CCOc1cncc(Nc2c(C)noc2-c2ccc(NC(=O)[C@H]3CCCC[C@@H]3C(=O)O)c(C)n2)n1
- inhibition (INH) [23]: Not_active

Compound: Cc1noc(-c2ccc(NC(=O)[C@@H]3CCCC[C@H]3C(=O)O)cc2)c1NC(=O)O[C@H](C)c1ccccc1Cl
- inhibition at 50 µM [13]: 66%

Compound: Cc1nc(-c2onc(C)c2NC(=O)O[C@H](C)c2ccccn2)ccc1NC(=O)[C@H]1CCCC[C@@H]1C(=O)O
- microsomal CLint at 0.5 µM [5]: 0.3 µL/min/mg
- inhibition at 50 µM [13]: 0%
- microsomal CLint at 0.5 µM [19]: 6 µL/min/mg

Compound: Cc1nc(-c2ncccc2NC(=O)O[C@H](C)c2ccccc2Cl)ccc1NC(=O)[C@H]1CCCC[C@@H]1C(=O)O
- inhibition (INH) [23]: Not_active

Compound: Cc1nc(-c2onc(C)c2Nc2cncc(OC3CC3)n2)ccc1NC(=O)[C@H]1CCCC[C@@H]1C(=O)O
- inhibition (INH) [23]: Not_active

Compound: CCNc1cncc(Nc2c(C)noc2-c2ccc(NC(=O)[C@H]3CCCC[C@@H]3C(=O)O)c(C)n2)n1
- inhibition (INH) [23]: Not_active

Compound: Cc1noc(-c2ccc(NC(=O)[C@H]3CCCC[C@@H]3C(=O)O)cc2)c1NC(=O)O[C@H](C)c1ccccc1Cl
- microsomal CLint at 0.5 µM [5]: 2.84 µL/min/mg
- inhibition at 50 µM [13]: 72%
- chromatographic logD [16]: 1.39
- microsomal CLint at 0.5 µM [19]: 19.5 µL/min/mg

Compound: Cc1noc(-c2ccc(NC(=O)C3CCCC(C(=O)O)C3)cc2)c1NC(=O)O[C@H](C)c1ccccc1Cl (single isomer, unassigned; diastereomer 1)
- inhibition (INH) [23]: Not_active

The next lines start with results.

- microsomal CLint at 0.5 µM [5]: 7 µL/min/mg
- solubility [9]: 525 µM (≈ 292 µg/mL)
- chromatographic logD [16]: 1.69
- microsomal CLint at 0.5 µM [19]: 11.8 µL/min/mg
Compound: Cc1nc(-c2onc(C)c2CNC(=O)O[C@H](C)c2ccccc2Cl)ccc1NC(=O)[C@H]1CCCC[C@@H]1C(=O)O
- inhibition at 50 µM [13]: 82%

- microsomal CLint at 0.5 µM [5]: 3.1 µL/min/mg
- solubility [9]: 519 µM (≈ 245 µg/mL)
- chromatographic logD [16]: 1.36
- microsomal CLint at 0.5 µM [19]: 3.7 µL/min/mg
Compound: CCC[C@@H](C)OC(=O)Nc1c(C)noc1-c1ccc(NC(=O)[C@H]2CCCC[C@@H]2C(=O)O)c(C)n1
- inhibition at 50 µM [13]: 48%

- IC50 [1]: 39.8 nM
- Tlast [2]: 8 h
- fCmax [3]: 1726 ng/mL
- fCmax [4]: 1597 ng/mL
- microsomal CLint at 0.5 µM [5]: < 2 µL/min/mg
- half-life [6]: 1.96 h
- Cmax [7]: 10300 ng/mL
- Vd [8]: 0.16 L/kg
- solubility [9]: 644 µM (≈ 318 µg/mL)
- fAUClast [10]: 3105 h/ng/mL
- bioavailability [11]: 45%
- clearance [14]: 2.05 mL/min/kg
- AUClast [15]: 24800 h/ng/mL
- chromatographic logD [16]: 0.86
- Cmax [17]: 60600 ng/mL
- fAUClast [18]: 3846 h/ng/mL
- microsomal CLint at 0.5 µM [19]: 11 µL/min/mg
- AUClast [20]: 109000 h/ng/mL
- Tlast [21]: 8 h
Compound: Cc1nc(-c2onc(C)c2Nc2cncc(OC(C)C)n2)ccc1NC(=O)[C@H]1CCCC[C@@H]1C(=O)O
- IC50 [12]: > 100000 nM
- inhibition at 50 µM [13]: 18%

- microsomal CLint at 0.5 µM [5]: < 2 µL/min/mg
- solubility [9]: 509 µM (≈ 282 µg/mL)
- chromatographic logD [16]: 1.69
- microsomal CLint at 0.5 µM [19]: 4 µL/min/mg
Compound: Cc1cc(NC(=O)[C@H]2CCCC[C@@H]2C(=O)O)c(C)nc1-c1onc(C)c1NC(=O)O[C@H](C)c1ccccc1Cl
- inhibition at 50 µM [13]: 73%

- IC50 [1]: 12.6 nM
- Tlast [2]: 24 h
- fCmax [3]: 2189 ng/mL
- fCmax [4]: 1225 ng/mL
- microsomal CLint at 0.5 µM [5]: 2.3 µL/min/mg
- half-life [6]: 1.81 h
- Cmax [7]: 17700 ng/mL
- Vd [8]: 0.2 L/kg
- solubility [9]: 641 µM (≈ 325 µg/mL)
- fAUClast [10]: 7686 h/ng/mL
- bioavailability [11]: 100%
- clearance [14]: 1.75 mL/min/kg
- AUClast [15]: 57300 h/ng/mL
- chromatographic logD [16]: 1.27
- Cmax [17]: 89700 ng/mL
- Drug uptake [24]: Active
- fAUClast [18]: 3967 h/ng/mL
- microsomal CLint at 0.5 µM [19]: 3.5 µL/min/mg
- AUClast [20]: 315000 h/ng/mL
- Tlast [21]: 8 h
Compound: Cc1nc(-c2onc(C)c2NC(=O)O[C@H](C)c2ccccc2)ccc1NC(=O)[C@H]1CCCC[C@@H]1C(=O)O
- IC50 [12]: 100000 nM
- ED50 [22]: 0.1 mg/kg
- inhibition at 50 µM [13]: 28%

- microsomal CLint at 0.5 µM [5]: 1 µL/min/mg
- solubility [9]: 555 µM (≈ 302 µg/mL)
- chromatographic logD [16]: 1.5
- microsomal CLint at 0.5 µM [19]: 5.4 µL/min/mg
Compound: Cc1noc(-c2ccc(NC(=O)[C@H]3CCCC[C@@H]3C(=O)O)c(F)n2)c1NC(=O)O[C@H](C)c1ccccc1Cl
- inhibition at 50 µM [13]: 50%

- microsomal CLint at 0.5 µM [5]: 7.6 µL/min/mg
- solubility [9]: 503 µM (≈ 280 µg/mL)
- chromatographic logD [16]: 1.55
- microsomal CLint at 0.5 µM [19]: 7.6 µL/min/mg
Compound: Cc1nc(-c2snc(C)c2NC(=O)O[C@H](C)c2ccccc2Cl)ccc1NC(=O)[C@H]1CCCC[C@@H]1C(=O)O
- inhibition at 50 µM [13]: 64%

From ChEMBL document CHEMBL6153155, “Novel Cyclohexyl Amido Acid Antagonists of Lysophosphatidic Acid Type 1 Receptor for the Treatment of Pulmonary Fibrosis” (ACS Med Chem Lett, 2025)
